# Laboratory results published in patent US11648254B2 (Kumquat Biosciences Inc., priority 2021, dated 2023).
# Where two headings read alike, the source gives them in different places.
# Assays:
# [1] = test system: NCI-H1975 cells (EGFR T790M L858R); experiment: EGFR-SOS cellular inhibition assay (CellTiter-Glo, 3D); assay type: cell-based
# SOS1 = SOS1 (Homo sapiens (Human), UniProt Q07889); experiment: Ras-SOS interaction assay (HTRF); assay type: biochemical
# [2] = test system: MIA PaCa-2 cells (K-Ras G12C); experiment: Ras-SOS cellular growth inhibition assay (CellTiter-Glo, 3D); assay type: cell-based
# Summary of the method: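 Growth read by CellTiter-Glo luminescence about 5 days after dosing with 3-fold dilutions (9 points), added one day post-seeding. Cells: MIA PaCa-2, 3D culture on ultra-low-attachment surface, medium DMEM/Ham's F12 plus 10% FCS and 2.5% horse serum; IC50 by four-parameter fit.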
# [3] = In vitro plasma protein binding (PPB); assay type: in vitro ADME; settings: percentage of free/unbound compound
# [4] = Homo sapiens, 120 h, NCI-H1975, 3D proliferation, about 5 days, read-out: Bio-Cell-Prolif-3D (H1975 IC50)
# [5] = Homo sapiens, NCI-H1975, EGFR T790M L858R, read-out: IC50 in inhibiting growth of NCI-H1975 cell line
# [6] = K-RasG13D utilized, read-out: IC50 inhibition of SOS
# [7] = K-RasG13D, read-out: IC50 value against SOS1
# [8] = Homo sapiens, MIA PaCa-2, 120 h, MIA PaCa-2, 3D proliferation, about 5 days, read-out: Bio-Cell-Prolif-3D (MiaPaca2 IC50)
# [9] = Homo sapiens, MIA PaCa-2, MIA PaCa-2, read-out: IC50 in inhibiting MIA PaCa-2 cell growth
# [10] = NCI-H1975, 3D proliferation, about 5 days, read-out: Bio-Cell-Prolif-3D (H1975 IC50)
# [11] = NCI-H1975, EGFR T790M L858R, read-out: IC50 in inhibiting growth of NCI-H1975 cell line
# [12] = MIA PaCa-2, 3D proliferation, about 5 days, read-out: Bio-Cell-Prolif-3D (MiaPaca2 IC50)
"IC50 [1, 4] [nM]","IC50 [1, 5] [nM]",IC50 (SOS1; [6]) [nM],IC50 (SOS1; [7]) [nM],"IC50 [2, 8] [nM]","IC50 [2, 9] [nM]",DMPK-invitro-PPB (Mouse Unbound) [%] [3] [%],"IC50 [1, 10] [nM]","IC50 [1, 11] [nM]","IC50 [2, 12] [nM]",Compound
≤ 1000,< 500,< 100,< 50,≤ 1000,< 500,2.56,–,–,–,"COc1nc2nc(C)nc(N[C@H](C)c3cccc(C(F)F)c3F)c2cc1C1CCS(=O)(=O)CC1 [Compound 102, (R)-4-(4-((1-(3-(difluoromethyl)-2-fluorophenyl)ethyl)amino)-7-methoxy-2-methylpyrido[2,3-d]pyrimidin-6-yl)tetrahydro-2H-thiopyran 1,1-dioxide]"
–,< 500,< 100,–,–,–,5.15,–,–,–,"COc1nc2nc(C)nc(N[C@H](C)c3cccc(C(F)F)c3F)c2cc1N1CCN(C)CC1 [Compound 103, (R)—N-(1-(3-(difluoromethyl)-2-fluorophenyl)ethyl)-7-methoxy-2-methyl-6-(4-methylpiperazin-1-yl)pyrido[2,3-d]pyrimidin-4-amine]"
≤ 1000,< 500,< 100,< 50,≤ 1000,< 500,3.51,–,–,–,"COc1nc2nc(C)nc(N[C@H](C)c3cccc(C(F)F)c3F)c2cc1N1CCN(C(C)C)CC1 [Compound 109, (R)-N-(1-(3-(difluoromethyl)-2-fluorophenyl)ethyl)-6-(4-isopropylpiperazin-1-yl)-7-methoxy-2-methylpyrido[2,3-d] pyrimidin-4-amine]"
≤ 1000,< 500,–,< 50,≤ 1000,< 500,0.31,–,–,–,"COc1nc2nc(C)nc(N[C@H](C)c3cccc(C(F)(F)F)c3C)c2cc1C1CCS(=O)(=O)CC1 [Compound 118, (R)-4-(7-methoxy-2-methyl-4-((1-(2-methyl-3-(trifluoromethyl)phenyl)ethyl)amino)pyrido[2,3-d]pyrimidin-6-yl)tetrahydro-2H-thiopyran 1,1-dioxide]"
≤ 1000,< 500,< 100,< 50,≤ 1000,< 500,0.73,–,–,–,"COc1nc2nc(C)nc(N[C@H](C)c3cccc(C(F)(F)F)c3F)c2cc1C1CCS(=O)(=O)CC1 [Compound 120, (R)-4-(4-((1-(2-fluoro-3-(trifluoromethyl)phenyl)ethyl)amino)-7-methoxy-2-methylpyrido[2,3-d]pyrimidin-6-yl)tetrahydro-2H-thiopyran 1,1-dioxide]"
≤ 1000,< 500,< 100,< 50,≤ 1000,< 500,4.01,–,–,–,"COc1nc2nc(C)nc(N[C@H](C)c3cccc(C(F)F)c3F)c2cc1N1CCS(=O)(=O)CC1 [Compound 131, (R)-4-(4-((1-(3-(difluoromethyl)-2-fluorophenyl)ethyl)amino)-7-methoxy-2-methylpyrido[2,3-d]pyrimidin-6-yl)thiomorpholine 1,1-dioxide]"
–,–,< 100,< 50,–,< 500,3.58,≤ 1000,< 500,≤ 1000,"COc1nc2ncnc(N[C@H](C)c3cccc(C(F)F)c3F)c2cc1C1CCS(=O)(=O)CC1 [Compound 146, (R)-4-(4-((1-(3-(difluoromethyl)-2-fluorophenyl)ethyl)amino)-7-methoxypyrido[2,3-d]pyrimidin-6-yl)tetrahydro-2H-thiopyran 1,1-dioxide]"
≤ 1000,< 500,–,< 50,≤ 1000,< 500,2.65,–,–,–,"COc1nc2nc(C)nc(N[C@H](C)c3cccc(C(C)(F)F)c3F)c2cc1C1CCS(=O)(=O)CC1 [Compound 150, (R)-4-(4-((1-(3-(1,1-difluoroethyl)-2-fluorophenyl)ethyl)amino)-7-methoxy-2-methylpyrido[2,3-d]pyrimidin-6-yl)tetrahydro-2H-thiopyran 1,1-dioxide]"
≤ 1000,< 500,< 100,< 50,≤ 1000,< 500,14.53,–,–,–,"COc1nc2ncnc(N[C@H](C)c3cccc(C(F)F)c3F)c2cc1N1CCN(C)CC1 [Compound 156, (R)-N-(1-(3-(difluoromethyl)-2-fluorophenyl)ethyl)-7-methoxy-6-(4-methylpiperazin-1-yl)pyrido[2,3-d] pyrimidin-4-amine]"
≤ 1000,< 500,< 100,< 50,≤ 1000,< 500,3.43,–,–,–,"COc1nc2ncnc(N[C@H](C)c3cccc(C(F)(F)F)c3F)c2cc1N1CCN(C(C)C)CC1 [Compound 159, (R)-N-(1-(2-fluoro-3-(trifluoromethyl)phenyl)ethyl)-6-(4-isopropylpiperazin-1-yl)-7-methoxypyrido[2,3-d] pyrimidin-4-amine]"
–,–,< 100,< 50,–,–,0.29,–,–,–,"COc1nc2nc(C)nc(N[C@H](C)c3cccc(C(F)(F)F)c3F)c2cc1C1CCN(C2CCOCC2)CC1 [Compound 344, (R)-N-(1-(2-fluoro-3-(trifluoromethyl)phenyl)ethyl)-7-methoxy-2-methyl-6-(1-(tetrahydro-2H-pyran-4-yl)piperidin-4-yl)pyrido[2,3-d]pyrimidin-4-amine]"
–,–,< 100,< 50,–,–,0.065,–,–,–,"COc1nc2nc(C)nc(N[C@H](C)c3cccc(C(F)(F)F)c3C)c2cc1C1CCN(C2CCOCC2)CC1 [Compound 358, (R)-7-methoxy-2-methyl-N-(1-(2-methyl-3-(trifluoromethyl)phenyl)ethyl)-6-(1-(tetrahydro-2H-pyran-4-yl)piperidin-4-yl)pyrido [2,3-d]pyrimidin-4-amine]"
≤ 1000,< 500,< 100,< 50,≤ 1000,< 500,–,–,–,–,"CCN1CCN(c2cc3c(N[C@H](C)c4cccc(C(F)F)c4F)nc(C)nc3nc2OC2COC2)CC1 [Compound 415, (R)-N-(1-(3-(difluoromethyl)-2-fluorophenyl)ethyl)-6-(4-ethylpiperazin-1-yl)-2-methyl-7-(oxetan-3-yloxy) pyrido[2,3-d]pyrimidin-4-amine]"
≤ 1000,< 500,< 100,< 50,≤ 1000,< 500,–,–,–,–,"COc1nc2nc(C)nc(N[C@H](C)c3cccc(C(F)(F)C4CCN(C(C)C)CC4)c3)c2cc1N1CCN(C(C)C)CC1 [Compound 418, (R)—N-(1-(3-(difluoro(1-isopropylpiperidin-4-yl)methyl)phenyl)ethyl)-6-(4-isopropylpiperazin-1-yl)-7-methoxy-2-methylpyrido[2,3-d]pyrimidin-4-amine]"
≤ 1000,< 500,< 100,< 50,≤ 1000,< 500,–,–,–,–,"COc1nc2ncnc(N[C@H](C)c3cccc(C(F)(F)C4CCN(C(C)C)CC4)c3)c2cc1C1CCN(C(C)C)CC1 [Compound 419, (R)—N-(1-(3-(difluoro(1-isopropylpiperidin-4-yl)methyl)phenyl)ethyl)-6-(1-isopropylpiperidin-4-yl)-7-methoxypyrido[2,3-d]pyrimidin-4-amine]"
≤ 1000,< 500,< 100,< 50,≤ 1000,< 500,–,–,–,–,"COc1nc2nc(C)nc(N[C@H](C)c3cccc(C(F)(F)C4CCN(C(C)C)CC4)c3)c2cc1C1CCN(C(C)C)CC1 [Compound 420, (R)-N-(1-(3-(difluoro(1-isopropylpiperidin-4-yl)methyl)phenyl)ethyl)-6-(1-isopropylpiperidin-4-yl)-7-methoxy-2-methylpyrido[2,3-d] pyrimidin-4-amine]"
≤ 1000,< 500,< 100,< 50,≤ 1000,< 500,–,–,–,–,"COc1nc2ncnc(N[C@H](C)c3cccc(C(F)(F)C4CCN(C(C)C)CC4)c3)c2cc1N1CCN(C(C)C)CC1 [Compound 421, (R)-N-(1-(3-(difluoro(1-isopropylpiperidin-4-yl)methyl)phenyl)ethyl)-6-(4-isopropylpiperazin-1-yl)-7-methoxypyrido[2,3-d] pyrimidin-4-amine]"
–,–,< 100,< 50,–,–,–,≤ 1000,< 500,≤ 1000,"((R)-1,4-dioxan-2-yl)(4-(4-(((R)-1-(2-fluoro-3-(trifluoromethyl)-phenyl)ethyl)amino)-7-methoxy-2-methylpyrido[2,3-d]pyrimidin-6-yl)piperazin-1-yl)methanone [Compound 303]"
